“Also recorded” adds a separate entry of the source.
Legend:
HSMM myotubes [1] = assay: Seahorse bioenergetic profiling of myotubes (OCR; oligomycin, CCCP, rotenone); format: cell-based, human
Method: HSMM myotubes cultured in wells in a Seahorse® assay cartridge were differentiated with 2% horse serum myocyte differentiation media for 7 days. Cells were transfected with either negative control scrambled siRNA or siHsp siRNA with TKO transfection reagents at concentration of 50 nM following vendor instructions as described above (Mirus Bio®). After 48 hours transfection, cells were subjected to Seahorse® bioenergetics analysis using drugs to modulate cell energetics, i.e., oligomycin, carbonyl cyanide-M-chlorophenyl hydrazine (CCCP), and rotenone. Oligomycin inhibits mitochondrial ATP synthase (complex V of ET chain) and allows analysis of glycolytic capacity. CCCP is an uncoupler that […] the mitochondrial membrane, thereby inducing maximum compensatory oxygen consumption, and allows analysis of uncoupled OCR. Rotenone inhibits NADH dehydrogenase (complex I of ET chain) and allows analysis of non-mitochondrial OCR.
To perform the assay, each well of the Seahorse® assay cartridge was washed with 1 ml running media. 500 ul of running media was added to each well and the plate was placed in an 37° C. (CO2 free) incubator. Drugs to modulate mitochondrial activity were prepared at a 10× (10 uM) concentration, so that after addition to the cartridge, the final concentration would be 1× (1 μM). Oligomycin (50 ul), CCCP (55 ul) and rotenone (55 ul) were added to ports A, B, and C of the cartridge and the cartridge was placed back in the incubator. The Seahorse® assay wizard was opened and the cycle parameters and times were setup. The Seahorse® assay was then performed using the instrument. After the Seahorse® assay, cells were lysed with 50 ul 450 mM NaOH and then neutralized with 5 ul Tris 6.8. DNA lysates were subjected to spectrophotometric analysis at OD260 using BioTek® Take3 DNA plate reader. The data were normalized with DNA contents of the cells.
HSMM myotubes were transfected with siRNA of either control or siHsp90β for 48 hours as described above, then subjected to Seahorse® bioenergetic profiling (XF24 Analyzer) using different mitochondrial drugs including oligomycin, CCCP, and rotenone; and monitored changes on oxygen consumption rate (OCR) that reflects either basal or maximum mitochondrial oxidative capacity. The results were normalized by DNA content.

HSMM myotubes [2] = assay: Insulin signaling in HSMM myotubes: western blot of total and phosphorylated Akt, Erk, GSK3β; format: cell-based, human; conditions: myotubes treated with inhibitor, then insulin stimulation
Method: Human skeletal muscle myoblasts (HSMM) were procured from PromoCell and were cultured in growth media recommended by the vendor. Confluent cultures were replaced with differentiation media (DMEM, 2% horse serum, pyruvate and HEPES) and cells allowed to differentiate for 7 to 10 days.
Human HSMM myotubes cells that were plated in 12 well plates the previous week were used. The media was aspirated and fresh media with appropriate dilutions of the NC and H3 siRNA for Hsp90 knockdown were added such that the final concentration in the wells of the plate was 100 nM. Mirus TKO transfection reagent was used for transfecting the cells. The plate was then incubated at 37° C. overnight.
The media was aspirated and the cells were washed off twice—first with warm PBS and second with 0.1% BSA containing growth media. The cells were then serum starved for 2-3 hours in 0.1% differentiation media containing the appropriate inhibitors at 37° C. followed by insulin stimulation for 5 minutes (0, 10, and 100 nM insulin).
The wells were then washed once with PBS and harvested into 100 μl of RIPA buffer containing protease and phosphatase inhibitors. The plate was placed on ice and, using a cell scraper, the cells were scraped from the plate. […]
Protein content was estimated by BCA assay and samples were prepared for gel electrophoresis and western blotting as described in subsequent sections. The total volume required to load 10 μg of total protein was calculated. […]
Visualization of proteins and quantification of western blots was performed as follows. […]
Each strip of membrane was taken out arranged in a clean flat surface. […] The bands were quantified using the BIORAD® software.
HSMM myotubes were sequentially (1) transfected with 3 different siRNAs targeting HSP90AB1 for 48 hours, (2) serum starved for 3 hours, and (3) subjected to stimulation of different concentrations of insulin (0, 10, 100 nM). Signaling events downstream of insulin stimulation were assessed by western blotting for levels of total and phosphorylated Akt, Erk, and GSK3β. […]

[3] = myotubes treated at different concentrations

CCc1cc(-c2n[nH]c(C)c2-c2ccc3c(c2)OCCO3)c(O)cc1O [CCT018159]
CCCP induced uncoupling response on mitochondrial metabolism (HSMM myotubes [1]; 1 μM, 3 μM, and 10 μM (FIG. 10 legend)): did not have a significant effect
CCCP induced OCR (HSMM myotubes [1]; 10 uM): greater suppression
uncoupled OCR (HSMM myotubes [1]; lower concentration, 1 μM): increased
basal OCR (HSMM myotubes [1]; [3]): no observed change
uncoupled OCR (CCCP induced) (HSMM myotubes [1]; [3]): decreased in a concentration dependent manner
level of pERK (HSMM myotubes [2]): no change; also recorded: No significant changes
level of pGSK3β (HSMM myotubes [2]): no change; also recorded: No significant changes
insulin stimulated phosphorylation of Akt (phospho-AKT) (HSMM myotubes [2]; higher concentration, 10 uM, vs untreated cultures): significantly enhanced; also recorded: increase

From US9533002B2, “Methods of treating a metabolic syndrome by modulating heat shock protein (HSP) 90-β” (Berg LLC, priority 2012, dated 2017)
